# Experimental data as given in paper PMC2360237, “A phase Ib study of pertuzumab, a recombinant humanised antibody to HER2, and docetaxel in patients with advanced solid tumours” (British Journal of Cancer, 2007).
# Read-outs that look alike come from different tables or passages of the source.
# Legend:
# [1] = Docetaxel plasma pharmacokinetics (LC-MS/MS, non-compartmental) alone and with pertuzumab in phase Ib patients; assay type: in vivo, human; settings: for AUC(0-inf) / Cmax / half-life: human, plasma, intravenous; for AUC(0-inf): read-out: AUC0-∞ mean (range); for Cmax: read-out: Cmax mean (range); for half-life: read-out: t1/2 mean (range) (converted)
# Method: (§1) In the first treatment cycle, blood withdrawal for PK analysis was performed 15 and 30 min prior to administration of docetaxel and 15 and 30 min and 1, 2, 4, 8 and 23 h, post administration. Pertuzumab was administered at least 24 h after, on day 2, followed by PK analysis at 15 min and 1.5, 4 and 8 h. In the second cycle, pertuzumab was administered on day 1, immediately followed by the administration of docetaxel and sampling for PK analysis was repeated for both drugs. Plasma samples of docetaxel were analysed using a validated specific liquid chromatography-mass spectrometry (LC-MS/MS) method as described previously ([Agus et al, 2005]). Serum samples were assayed for pertuzumab concentrations using a receptor-binding, enzyme-linked immunosorbent assay. The assay uses immobilised antigen p185^HER2 ECD to capture pertuzumab from serum samples. Bound pertuzumab was detected with mouse anti-human Fc-horseradish peroxidase (Jackson ImmunoResearch Laboratories Inc., West Grove, PA, USA), and tetramethyl benzidine (KPL Inc., Gaithersburg, MD, USA) used as the substrate for colour development to quantify serum pertuzumab against a known standard curve. The assay has a minimum quantifiable concentration of 0.25 μg ml^−1 for pertuzumab in human serum. Pharmacokinetic parameters for docetaxel and pertuzumab were estimated using non-compartmental methods (WinNonLin software version 5.0.1).
# [2] = tested on: patients with advanced solid tumours
# Method: This was a phase Ib, open-label, two-center study. […] Pertuzumab was provided by F Hoffmann-La Roche (Basel, Switzerland). Each 10 ml single-use vial contained 175 mg of pertuzumab formulated in 10 mmol l^−1 L-histidine (pH6.0), 240 mmol l^−1 sucrose, and 0.02% polysorbate 20. The first dose of pertuzumab was given by intravenous infusion over 90 min. […] Initially, the planned dose of pertuzumab was fixed dose at 1050 mg for each dose level. […] The dose of docetaxel was sequentially escalated from 60 to 75 to 100 mg m^−2 as outlined in Table 1. […] Initially, three patients were treated in cohort 1, with the first patient being monitored for at least 2 weeks before additional patients were treated. Escalation to a new dose level was permitted when at least two of three patients had been evaluated for 3 weeks. […] At least six patients were to be treated at the 75 and 100 mg m^−2 dose levels before a recommended phase II dose was declared. […]
# The incidence and severity of all adverse events, changes in vital signs, laboratory assessments, physical examination findings, and medical conditions during and after treatment with pertuzumab were assessed at least weekly during the first two cycles, and at least weekly three times thereafter, and graded according to NCI-CTC Version 3. […]
# [3] = tested on: refractory ovarian cancer; HRPC; settings: cited from earlier work
# [4] = tested on: patients with advanced cancer; settings: cited from earlier work
# [5] = Pertuzumab serum pharmacokinetics (receptor-binding ELISA, non-compartmental) in phase Ib patients; settings: for AUC0-last mean (range) / AUC0-∞ mean (range) / Cl mean (range) / Cmax mean (range) / Vss mean (range): serum
# Method: as §1
# [6] = Cohort 1, docetaxel 60 mg m^−2 + pertuzumab 1050 mg, cycle 2, n=6, plasma
# [7] = Cohort 1, docetaxel 60 mg m^−2 alone, cycle 1, n=6, plasma
# [8] = Cohort 2A, docetaxel 75 mg m^−2 + pertuzumab 420 mg, cycle 2, n=6, plasma
# [9] = Cohort 2A, docetaxel 75 mg m^−2 alone, cycle 1, n=6, plasma
# [10] = Cohort 3A, docetaxel 100 mg m^−2 + pertuzumab 420 mg, cycle 2, n=4, plasma
# [11] = Cohort 3A, docetaxel 100 mg m^−2 alone, cycle 1, n=5, plasma
# [12] = 60 mg m^−2, Cohort 1, docetaxel 60 mg m^−2 alone, cycle 1, n=6, plasma
# [13] = 75 mg, Cohort 2A, docetaxel 75 mg m^−2 alone, cycle 1, n=6, plasma
# [14] = 100 mg, Cohort 3A, docetaxel 100 mg m^−2 alone, cycle 1, n=5, plasma
# [15] = pertuzumab 420 mg, cycle 2, n=10, in combination with docetaxel
# [16] = pertuzumab 840 mg (loading dose), cycle 1, n=11, in combination with docetaxel
# [17] = pertuzumab 1050 mg, cycle 1, n=8, in combination with docetaxel
# [18] = pertuzumab 1050 mg, cycle 2, n=7, in combination with docetaxel
compound,measurement,setting,value
"CC(=O)O[C@@]12CO[C@@H]1C[C@H](O)[C@@]1(C)C(=O)[C@H](O)C3=C(C)[C@@H](OC(=O)[C@H](O)[C@@H](NC(=O)OC(C)(C)C)c4ccccc4)C[C@@](O)([C@@H](OC(=O)c4ccccc4)[C@H]21)C3(C)C [docetaxel, Docetaxel]",Cl mean (range),[1]; [6],36 (23–40) × 10^3 ml h m^−2
same,Vss mean (range),[1]; [6],102 (64–154) × 10^4 ml m^−2
same,Cl mean (range),[1]; [7],33 (28–39) × 10^3 ml h m^−2
same,Vss mean (range),[1]; [7],79 (42–100) × 10^4 ml m^−2
same,Cl mean (range),[1]; [8],24 (15–34) × 10^3 ml h m^−2
same,Vss mean (range),[1]; [8],57 (20–110) × 10^4 ml m^−2
same,Cl mean (range),[1]; [9],22 (13–31) × 10^3 ml h m^−2
same,Vss mean (range),[1]; [9],41 (18–70) × 10^4 ml m^−2
same,Cl mean (range),[1]; [10],22 (12–41) × 10^3 ml h m^−2
same,Vss mean (range),[1]; [10],43 (16–76) × 10^4 ml m^−2
same,Cl mean (range),[1]; [11],18 (12–28) × 10^3 ml h m^−2
same,Vss mean (range),[1]; [11],25 (16–32) × 10^4 ml m^−2
same,"Pharmacokinetic drug–drug interaction (Cmax, AUC and clearance of docetaxel alone vs in combination with pertuzumab)",[1]; cycle 1 alone vs cycle 2 combined,no drug–drug interaction
same,AUC(0-inf),[1]; [12],1840 ng·h/mL
same,Cmax,[1]; [12],1640 ng/mL
same,half-life,[1]; [12],16.9 h
same,AUC(0-inf),[1]; [13],3740 ng·h/mL
same,Cmax,[1]; [13],3130 ng/mL
same,half-life,[1]; [13],12.7 h
same,AUC(0-inf),[1]; [14],5930 ng·h/mL
same,Cmax,[1]; [14],5450 ng/mL
same,half-life,[1]; [14],9.59 h
same,AUC(0-inf),[1]; [6],1730 ng·h/mL
same,Cmax,[1]; [6],1700 ng/mL
same,half-life,[1]; [6],19.7 h
same,AUC(0-inf),[1]; [8],3500 ng·h/mL
same,Cmax,[1]; [8],2720 ng/mL
same,half-life,[1]; [8],15.2 h
same,AUC(0-inf),[1]; [10],5220 ng·h/mL
same,Cmax,[1]; [10],4700 ng/mL
same,half-life,[1]; [10],12.8 h
same,Recommended phase II dose of docetaxel in the combination,"[2]; with pertuzumab 420 mg following a loading dose of 840 mg, intravenously every 3 weeks",75 mg m^−2
"pertuzumab: fully humanised monoclonal antibody, which acts by blocking the association of HER2 with other HER family members",Recommended phase II dose of pertuzumab in the combination,"[2]; in vivo, iv",420 mg
same,Anti-tumour activity,"[3]; single-agent pertuzumab, refractory ovarian cancer, ref Gordon et al, 2006",Significant anti-tumour activity
same,Anti-tumour activity,"[3]; single-agent phase II study, HRPC, ref De Bono et al, 2007",no evidence of anti-tumour activity
same,Terminal elimination half-life,[4]; in vivo,2–4 weeks
same,Tolerability,[4]; in vivo,well tolerated
same,Maximum tolerated dose,"[4]; single-agent pertuzumab, phase I studies, not reached, ref Agus et al, 2005",> 15 mg/kg
same,PK parameters of pertuzumab in the presence of docetaxel compared with single agent,"[5]; 1050 mg cycles 1 and 2, 840 mg cycle 1 and 420 mg cycle 2",comparable with single agent values
same,AUC0-last mean (range),[5]; [15],1491 (914–2289) μg day ml^−1
same,AUC0-∞ mean (range),[5]; [15],2762 (1639–3827) μg day ml^−1
same,Cl mean (range),[5]; [15],169 (110–256) ml per day
same,Cmax mean (range),[5]; [15],150 (102–233) μg ml^−1
same,Vss mean (range),[5]; [15],4233 (2823–7058) ml
same,AUC0-last mean (range),[5]; [16],1749 (1214–3083) μg day ml^−1
same,AUC0-∞ mean (range),[5]; [16],2796 (1604–5116) μg day ml^−1
same,Cl mean (range),[5]; [16],329 (164–524) ml per day
same,Cmax mean (range),[5]; [16],255 (169–447) μg ml^−1
same,AUC0-last mean (range),[5]; [17],2390 (1733–3355) μg day ml^−1
same,AUC0-∞ mean (range),[5]; [17],3951 (2348–4980) μg day ml^−1
same,Cl mean (range),[5]; [17],282 (211–447) ml per day
same,Cmax mean (range),[5]; [17],301 (143–394) μg ml^−1
same,Vss mean (range),[5]; [17],5214 (2975–7036) ml
same,AUC0-last mean (range),[5]; [18],3500 (3010–4346) μg day ml^−1
same,AUC0-∞ mean (range),[5]; [18],6856 (4521–11426) μg day ml^−1
same,Cmax mean (range),[5]; [18],368 (253–463) μg ml^−1
same,Vss mean (range),[5]; [18],4672 (3023–6580) ml
